Our source for the TGI and GI50 values is PubChem BioAssay (NCI).

SMILES strings stand for the structures. “And” between values parts separate entries of the source, which are not always exact repeats. Equal entries are not always repeated.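 Compound exposure: 48 hours, 5 concentrations, 96-well plates. The concentration for 50% growth inhibition is given as GI50. TGI marks complete inhibition of growth.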

Assay in all cases: NCI-60 cell line screen, 48 h
Test [1] relates to OVCAR-5 ovarian.
For test [2], the system named is UACC-257 melanoma.
Test [3] concerns SF-295 CNS.
Test [4] concerns SF-268 CNS.
Test [5] concerns EKVX NSCLC.
In test [6] the test system is NCI-H460 lung.
Test [7] has as its system SW-620 colon.
Test [8] deals with SK-OV-3 ovarian.
Test [9] has as its system HT29 colon.
Test [10] has as its system T-47D breast.

On to `O=[N+]([O-])c1cccc(C2=NN(c3ccccc3)C3c4cc(Br)ccc4OCC23)c1` (configuration not stated), for which the TGI in test [1], in test [2], in test [3], in test [4], in test [5] and in test [6] was more than 100 µM throughout. Moreover, the TGI in test [7], in test [8] and in test [9] was more than 100 µM throughout.

`CCCCCCCC(=O)OCC(COC(=O)C(C)(C)C)OC(=O)Cc1ccccc1` (configuration not stated): the TGI in test [1], in [3], in test [4], in test [6], in test [7] and in test [8] was more than 100 µM throughout.

`OCc1cn(Cc2ccccc2)c2ccccc12`: the TGI is 0.838 µM in [1]; more than 100 µM in [3]; 40.2 µM in [4]; more than 100 µM in [5]; 35.8 µM in [6]; more than 100 µM in [7]. Besides, the TGI in [8] was more than 100 µM; in test [9], more than 84.5 µM.

On to `C[C@]12CCC3[C@@H](CCC45OC4C(=O)CC[C@]35C)C1Cc1cnn(-c3ccc(F)cc3)c1N2` (some centres not stated), for which the TGI in test [2] is more than 100 µM; in [3] it was more than 100 µM; in test [4], 77.8 µM; in test [5], more than 100 µM; in [6], more than 100 µM; in test [7], 97 µM. The TGI in [8] is more than 100 µM; in test [9] it was 33 µM.

For the compound `Cc1cc([N+](=O)[O-])c(C)c2c1[nH]c1ccc(Cl)cc12`, the TGI in test [1], in test [2], in [3], in test [4], in test [5] and in test [6] was more than 100 µM each time. In addition, the TGI in test [7] and in test [9] was more than 100 µM throughout.

For `c1ccc(-c2c(-c3ccccc3)[n+](Cc3ccc4ccccc4c3)c(-c3ccc(-c4nc5ccccc5s4)cc3)n2Cc2ccc3ccccc3c2)cc1`, the GI50 in test [1] was 0.311 µM; in [5], 0.187 µM; in test [6], 0.231 µM; in test [7], 0.14 µM. Moreover, the TGI was found to be 1.17 µM in [1], 1.19 µM in test [5], 1.11 µM in test [6] and 0.764 µM in test [7].

In the case of `CC1CC(N2CCOCC2)=Nc2ccccc2N1C` (configuration not stated), the TGI in test [1], in test [2], in test [3], in test [4], in test [5] and in test [6] was more than 100 µM throughout. The TGI in test [7], in [8] and in [9] was more than 100 µM in each case.

Consider `O=C1C=CC2(O[C@H](c3ccccc3)[C@@H](c3ccccc3)O2)[C@H](Sc2ccccc2O)C1`, for which the TGI was 4.49 µM in [1]; 1.71 µM in test [2]; 15.6 µM in [3]; 0.964 µM in test [4]; 3.31 µM in [5]; 8.95 µM in test [6]. Besides, the TGI in test [7] is more than 100 µM; in test [8] it was 11.8 µM; in test [9], 1.45 µM.

For `O=C(c1ccco1)N(C(=O)N1CCCCC1)c1ccccc1`, the TGI in test [1], in [2], in test [4], in test [5], in [7] and in test [8] was more than 100 µM each time. The compound further yielded a TGI in test [9] of more than 100 µM.

`Cc1c2ccnc(C(N)=O)c2c(C)c2c1[nH]c1ccccc12`: the GI50 in [1] was 6.41 µM; in test [3], 4.37 µM; in test [4] it was 6.19 µM; in test [5], 6.56 µM; in [6], 2.62 µM; in test [8], 14.1 µM. In test [9], the GI50 was 4.12 µM. For the same compound, the TGI in test [1] is 37.4 µM and 33.3 µM; in [2], 35.1 µM; in test [3] it was 25.6 µM and 22.3 µM; in test [4], 44.6 µM and 27.8 µM; in [5], 35.3 µM and 46.8 µM; in test [6], 16.2 µM and 13.7 µM. Besides, the TGI in test [7] is 45.6 µM and 40.8 µM; in test [8], 23.9 µM and 34.3 µM; in [9], 23.2 µM and 20.4 µM.

For the compound `N#Cc1c(-c2ccc([N+](=O)[O-])cc2)cc(-c2ccc(Nc3ccnc4cc(Cl)ccc34)cc2)[nH]c1=O`, the TGI in [1], in test [3], in [4], in test [5], in test [10] and in test [6] was more than 100 µM each time. Also, the TGI in test [7] and in [8] was more than 100 µM throughout.

In the case of `CC1=NN(C(=O)Cc2ccccc2)C(=O)/C1=C\c1ccc(O)cc1`, the TGI in test [1], in test [2], in [3], in test [4], in test [5] and in [6] was more than 100 µM each time. In addition, the TGI in [7], in test [8] and in [9] was more than 100 µM each time.

As to `O=[N+]([O-])c1ccc(C[P+]2(c3ccccc3)CCCCC2)cc1`, the TGI in [1], in test [2], in test [3], in test [5], in test [6] and in test [7] was more than 100 µM in each case. Moreover, the TGI in [8] and in [9] was more than 100 µM each time.

As for `CCOC(=O)/C=C/c1nc(C#N)c(N)o1`, the TGI in test [1], in test [2], in test [4], in test [5], in test [7] and in test [8] was more than 100 µM each time. Besides, the TGI in test [9] was more than 100 µM.

Regarding `NS(=O)(=O)c1nnc(NC(=O)N(c2ccccc2)c2ccccc2)s1`, the TGI is 70.1 µM in test [1]; more than 100 µM in test [2]; more than 100 µM in test [3]; more than 100 µM in test [4]; 78.2 µM in [5]; more than 100 µM in test [7]. The TGI in test [8] and in [9] was more than 100 µM each time.

Regarding `Cc1ccccc1-c1nc2c(N)nc(N)nc2nc1N`, the TGI in test [1], in test [2], in test [3], in test [4], in [5] and in test [6] was more than 100 µM throughout. Further, the TGI in test [7], in test [8] and in test [9] was more than 100 µM in each case.

Take `CSCC[C@@H](NC(=O)[C@H](CC(C)C)NC(=O)C(Cc1cnc[nH]1)NC(=O)CNC(=O)[C@@H](NC(=O)[C@H](C)NC(=O)[C@H](Cc1c[nH]c2ccccc12)NC(=O)[C@H](CCC(N)=O)NC(=O)[C@@H](N)CC(N)=O)C(C)C)C(N)=O` (some centres not stated): the TGI in test [1], in test [2], in test [3], in test [4], in [5] and in [6] was more than 100 µM each time. Further, the TGI in test [7], in test [8] and in [9] was more than 100 µM each time.

Consider `CC(=O)O[C@@H](c1nccn1Cc1ccccc1)[C@H]1OC(C)(C)O[C@@H]1[C@H]1COC(C)(C)O1`, for which the TGI in [1], in test [2], in [3], in [4], in test [5] and in [6] was more than 100 µM each time. Besides, the TGI in test [7] and in [9] was more than 100 µM in each case.

For `COC(=O)/C=C(\C)CC/C=C(\C)CCC1OC1(C)C` (configuration not stated), the TGI is 25.3 µM in test [1]; 23.3 µM in test [2]; 21.3 µM in test [3]; 24.3 µM in test [5]; 24.2 µM in test [6]; 28.4 µM in test [7]. Besides, the TGI in [8] was more than 75 µM; in test [9], 27.6 µM.

As for `COC(=O)CNC(=O)C(CSC(=O)OCC1c2ccccc2-c2ccccc21)NC(=O)CCC(NC(=O)OCC1c2ccccc2-c2ccccc21)C(=O)OC` (configuration not stated), the TGI in test [1] was 76.7 µM; in test [2], more than 100 µM; in [3], 31.2 µM; in [4] it was 51.9 µM; in test [5], more than 100 µM; in test [6] it was 59.2 µM. Besides, the TGI in [7] is more than 100 µM; in test [8] it was 74.6 µM.

Consider `COc1cc2nc(-c3ccc(Cl)cc3)cc(OCCCN3CCOCC3)c2cc1OC`, for which the GI50 in test [1] is 1.58 µM; in test [3], 1.08 µM; in test [5], 1.73 µM; in test [10], 1.96 µM; in test [6], 0.958 µM; in [7], 3.57 µM. Also, the GI50 was 3 µM in [8] and 0.61 µM in test [9]. Besides, the TGI was more than 100 µM in test [1]; 2.84 µM in [3]; more than 100 µM in test [5]; more than 100 µM in test [10]; more than 100 µM in [6]; more than 100 µM in [7]. Moreover, the TGI in [8] and in [9] was more than 100 µM each time.

Consider `COc1ccc(CNc2cnc3ccc(N)cc3n2)cc1`, for which the TGI in [1], in [2], in [3], in test [4], in test [5] and in [6] was more than 100 µM each time. Further, the TGI in [7] and in test [9] was more than 100 µM each time.

As for `CN(C)c1nc(Oc2nc(N(C)C)nc(N(C)C)n2)nc(N(C)C)n1`, the TGI in [1], in test [2], in [3], in test [4], in [5] and in test [6] was more than 100 µM throughout. Further, the TGI in test [7], in [8] and in test [9] was more than 100 µM throughout.

Take `CN(C)CCNC(=O)c1cccc2c1Nc1ccccc1S2`: the TGI in test [1] is 26.3 µM; in test [2], 27 µM; in [3], 27.7 µM; in test [4], 31.7 µM; in [5] it was 18.7 µM; in test [6] it was 25.7 µM. The TGI in test [7] came to 30.8 µM; in test [8], 30.5 µM; in test [9], 25 µM.

Turning to `CC(C)C(Br)CCC1=CCC(Br)(Br)C1` (configuration not stated), the TGI came out at 30.5 µM in [1]; 28.2 µM in test [2]; 33.4 µM in [3]; 31.2 µM in test [4]; 32.5 µM in [5]; 31.7 µM in test [6]. The TGI in test [7] stood at 12.2 µM; in test [8], 28.1 µM; in test [9], 28.6 µM.

On to `COc1cc(C)c(CC/C(C)=C/Cc2cc(O)ccc2O)c(C)c1C`, for which the TGI in test [3], in test [4], in test [5], in test [6], in test [7] and in test [8] was more than 25 µM in each case. In test [9], this compound came in with a TGI of more than 25 µM.

For `Cc1ccc(-c2cc(-c3ccco3)c(C#N)c(=S)[nH]2)cc1`, the TGI in test [1] is more than 100 µM; in test [3], more than 100 µM; in [4] it was more than 100 µM; in test [5], more than 100 µM; in [10], 71.5 µM; in [6] it was more than 100 µM. Also, the TGI in test [7], in test [8] and in [9] was more than 100 µM in each case.

Regarding `N#CNC(N)=NCc1ccccc1`, the TGI in test [1], in test [2], in [3], in [4], in [6] and in test [8] was more than 100 µM in each case. The compound further registered a TGI in test [9] of more than 100 µM.

As for `Cc1c(N2CCOCC2)nc2ccc(Cl)cc2c1-c1ccccc1`, the TGI in test [2], in test [3], in test [4], in [5], in test [6] and in [7] was more than 100 µM each time. The TGI in [8] and in test [9] was more than 100 µM each time.
